Reference: PMC4425356, “An Extended Surface Loop on Toxoplasma gondii Apical Membrane Antigen 1 (AMA1) Governs Ligand Binding Selectivity” (PLoS ONE, 2015)
“Also recorded” adds a separate entry of the source. Read-outs that look alike come from different tables or passages of the source. Ends that are not written are not given here.

How the values were obtained:
TgAMA1 = assay: Isothermal titration calorimetry of TRX-fused RON2D3 peptides titrated into TgAMA1; type: binding, Toxoplasma gondii; conditions: ITC, 25 °C; for Kd / -TΔS / ΔG / Molar Ratio (RON2/AMA1) / ΔH: TgAMA1, TRX-fused peptides; for Molar Ratio (RON2/AMA1) / ΔH: representative of at least two
Experimental: (§1) For ITC experiments, TgAMA1 was produced and purified as previously reported. Thioredoxin fusions of TgRON2D3, TgRON2L1D3, TgRON2L2D3, EtRON2D3 and PfRON2D3 were produced in E. coli BL21 cells and purified by nickel-affinity and SEC.
(§2) Purified TgAMA1, TgAMA1ΔDIIloop, and TRX fusions of TgRON2D3, TgRON2L1D3 TgRON2L2D3, EtRON2D3, and PfRON2D3 were dialyzed against HBS at 4 °C. All ITC experiments were carried out at 25 °C on a MicroCal iTC200 instrument (GE Healthcare). […] Data were processed using Origin software (MicroCal) and the dissociation constants (Kd) were determined using a one-site model. Values are derived from a single experiment, but are representative of at least two independent experiments.

TgAMA1ΔDIIloop [1] = assay: Isothermal titration calorimetry of TRX-fused RON2D3 peptides titrated into TgAMA1ΔDIIloop (DII loop replaced by Gly-Ser linker); type: binding, Toxoplasma gondii; conditions: for binding to TgAMA1ΔDIIloop (in words) / Kd / -TΔS / ΔG / Molar Ratio (RON2/AMA1) / ΔH: ITC, 25 °C; for binding to TgAMA1ΔDIIloop (in words) / -TΔS / ΔG / Molar Ratio (RON2/AMA1) / ΔH: HBS pH 7.5; for Kd / -TΔS / ΔG / Molar Ratio (RON2/AMA1) / ΔH: TgAMA1ΔDIIloop, TRX-fused peptides; for Kd: HBS (20 mM HEPES pH 7.5, 150 mM NaCl), one-site model, representative of at least two independent experiments; for Kd / Molar Ratio (RON2/AMA1) / ΔH: single experiment; for Molar Ratio (RON2/AMA1) / ΔH: representative of at least two
Source text: A sequence encoding the mature ectoplasmic region of TgAMA1 (amino acids 64 to 484, TGME49_255260 [24]) with the twenty residues of the DII loop disordered in the TgAMA1-TgRON2D3 co-structure replaced by a seven residue Gly-Ser linker (TgAMA1ΔDIIloop) was synthesized and subcloned into a modified pAcGP67b vector (Pharmingen) with a C-terminal thrombin cleavage site and hexahistidine tag. TgAMA1ΔDIIloop encoding virus for insect cell protein production was generated and amplified using established protocols. Following a 65 hr infection the supernatant was harvested, concentrated, and TgAMA1ΔDIIloop was purified by nickel batch binding as previously described. The hexahistidine tag was removed by thrombin cleavage and the protein was further purified by size exclusion chromatography (SEC) (Superdex 16/60 75) in HEPES buffered saline (HBS: 20 mM HEPES pH 7.5, 150 mM NaCl).
as §1, §2

[2] = biological target: TgAMA1ΔDIIloop (TgAMA1 with the mobile portion of the DII loop replaced with a short Gly-Ser linker) (Toxoplasma gondii) (UniProt B6KAM0); assay: ITC; TgAMA1 or TgAMA1ΔDIIloop in the sample cell (10 to 16 μM for nanomolar affinity, 35 to 75 μM for micromolar affinity), TRX-fused peptides (110 to 180 μM or 360 to 1180 μM) added in 17 injections of 2 μL; 25 °C; HBS (20 mM HEPES pH 7.5, 150 mM NaCl); one-site model
[3] = biological target: Toxoplasma gondii apical membrane antigen 1 (TgAMA1) (Toxoplasma gondii); assay: as above
TgAMA1ΔDIIloop [4] = assay: Native gel electrophoresis of TgAMA1ΔDIIloop co-purified with EtRON2D3; type: binding, Toxoplasma gondii; conditions: 8–25% gradient native gel, HBS, Coomassie Brilliant Blue; sample co-purified with EtRON2D3
Source text: A sequence encoding a portion of EtRON2D3 (amino acids 1262 to 1297, ETH_00012760) was synthesized and subcloned into a modified pET32a vector (Novagen) incorporating N-terminal hexahistidine and thioredoxin (TRX) tags with a thrombin cleavage site. The fusion protein was produced in E. coli BL21 cells. For crystallization, EtRON2D3-TRX was cleaved to remove the fusion tags and co-purified with TgAMA1ΔDIIloop by SEC in HBS followed by anion exchange chromatography using a Source 30Q column (20 mM HEPES pH 8.0, 10 mM NaCl; elution gradient with 20 mM HEPES pH 8.0, 1 M NaCl) to remove residual TRX tag.
Purified TgAMA1ΔDIIloop and co-purified TgAMA1ΔDIIloop-EtRON2D3 protein samples in HBS were run on an 8–25% gradient native gel using the PhastGel system (GE Healthcare), and protein bands were visualized with Coomassie Brilliant Blue staining.

TgAMA1 or TgAMA1ΔDIIloop = assay: Isothermal titration calorimetry, TRX negative control; type: binding, Toxoplasma gondii; conditions: ITC, 25 °C, HBS pH 7.5
Experimental: as §2

## TgRON2D3: RON2 domain 3 peptide of T. gondii, thioredoxin fusion produced in E. coli BL21 (DIVQHMEDIGGAPPVSCVTNEILGVTCAPQAIAKAT; cysteine pairing not given here; also: thioredoxin fusion, end not given here, His tag, end not given here)
TgAMA1; HBS pH 7.5
  binding to TgAMA1 (in words): bound both TgRON2D3 and EtRON2D3 but only the former with high affinity
  -TΔS: 5.9 kcal/mol
  ΔG: -11.2 kcal/mol
TgAMA1; HBS (20 mM HEPES pH 7.5, 150 mM NaCl), one-site model, single experiment, representative of at least two independent experiments, read-out: Kd
  Kd: 5.8 ± 2.8 nM
TgAMA1; HBS pH 7.5, single experiment
  Molar Ratio (RON2/AMA1): 1.00 ± 0.01
  ΔH: -17.1 ± 0.2 kcal/mol
TgAMA1ΔDIIloop [1]
  binding to TgAMA1ΔDIIloop (in words): bound both TgRON2D3 and EtRON2D3 with high affinity
  Kd: 3.6 ± 3 nM
  -TΔS: 10.6 kcal/mol
  ΔG: -11.6 kcal/mol
  Molar Ratio (RON2/AMA1): 1.01 ± 0.01
  ΔH: -22.2 ± 0.2 kcal/mol

## EtRON2D3-TRX (Eimeria tenella RON2 domain 3 peptide, thioredoxin fusion) (from UniProt U6KQJ2 1262-1297)
[2]
  Kd: < 8 nM
[3]
  Kd: 2200 nM

## TgRON2L1D3 thioredoxin fusion (Toxoplasma gondii RON2L1 domain 3 peptide)
[2]
  Kd: 46000 nM
  stoichiometry N: 1

## PfRON2D3 thioredoxin fusion (Plasmodium falciparum RON2 domain 3 peptide)
[2]
  Kd: 1400 nM
  stoichiometry N: 1

## TgRON2L2D3 thioredoxin fusion (Toxoplasma gondii RON2L2 domain 3 peptide)
[2]
  Kd: 6000 nM
  stoichiometry N: 1

## EtRON2D3: a portion of EtRON2D3 (amino acids 1262 to 1297, ETH_00012760), Eimeria tenella RON2 peptide (thioredoxin-DITQHLNDSGLGPAVECLENLVVGPVCPAAVVAPAV; not fully specified (bridges); also: disulfide partially formed)
TgAMA1; HBS pH 7.5
  binding to TgAMA1 (in words): bound both TgRON2D3 and EtRON2D3 but only the former with high affinity
  -TΔS: -3.0 kcal/mol
  ΔG: -7.7 kcal/mol
TgAMA1; HBS pH 7.5, listed as EtRON2
  binding to TgAMA1 (in words): showed only weak binding to TgAMA1
TgAMA1; HBS pH 7.5, rounded value, read-out: affinity (Kd)
  Kd: 2200 nM
TgAMA1; HBS pH 7.5, single experiment
  Molar Ratio (RON2/AMA1): 1.17 ± 0.02
  ΔH: -4.7 ± 0.1 kcal/mol
TgAMA1ΔDIIloop [1]
  binding to TgAMA1ΔDIIloop (in words): bound both TgRON2D3 and EtRON2D3 with high affinity; also recorded: significantly tighter binding to TgAMA1ΔDIIloop relative to TgAMA1
  Kd: 8 ± 3.1 nM
  -TΔS: -0.1 kcal/mol
  ΔG: -11.1 kcal/mol
  Molar Ratio (RON2/AMA1): 0.96 ± 0.01
  ΔH: -11.0 ± 0.1 kcal/mol
TgAMA1ΔDIIloop [1]; listed as EtRON2
  binding to TgAMA1ΔDIIloop (in words): bound with high affinity to TgAMA1ΔDIIloop
TgAMA1ΔDIIloop [1]; ratio of ITC Kd, TgAMA1 (2.2 μM) vs TgAMA1ΔDIIloop (8.0 nM)
  fold tighter binding to TgAMA1ΔDIIloop relative to TgAMA1: approximately 275 fold
TgAMA1ΔDIIloop [4]
  native PAGE migration / retention on TgAMA1ΔDIIloop: altered migration for the sample co-purified with EtRON2D3

## TRX: thioredoxin, injected as a negative control
TgAMA1 or TgAMA1ΔDIIloop
  binding of TRX negative control: no detectable binding

## TgRON2D3 thioredoxin fusion (Toxoplasma gondii RON2 domain 3 peptide) (from UniProt B6KV60 1297-1332)
[3]
  Kd: < 5.8 nM
